Experimental data published in PMC3101337, “Interactions of the Melanocortin-4 Receptor with the Peptide Agonist NDP-MSH” (Journal of Molecular Biology, 2010).

Biological target: T1, hMC4R mutant L106C (Homo sapiens, UniProt P32245, L106C)
T1 construct: expressed in transfected cells; host or cells: HEK293 CRE-Luciferase cells; mutant made by QuikChange on pcDNA3-MC4R
Assay: CRE-Luciferase cAMP activity assay, L106C MC4R
Type: cell-based
Conditions: L106C MC4R in HEK293 CRE-Luciferase cells, mean ± SEM, N = 3, NA = no activity, read-out: Ligand pEC50 (converted)
Procedure: Twenty-four hours posttransfection, HEK293 CRE-Luciferase cells were plated onto 96-well black-wall, clear-bottom, poly-D-lysine-coated microplates (Corning Costar) at a density of 50,000 cells/well and cultured for a further 12–18 h. […] Microtiter plates were incubated for 4 h at 37 °C, after which Luclite® reagent (Perkin-Elmer) was added to each well. The plates were sealed and subjected to dark adaptation for 5 min at room temperature. Luciferase activity was determined by scintillation counting using a TOPCount scintillation counter (Perkin-Elmer).
All measurements, except where stated, were carried out in triplicate in three independent experiments. The values quoted and depicted graphically are the means of independent determinations with the standard error of the mean. […] In a similar fashion, EC50 values were calculated from the fit of sigmoidal concentration–response curves (three-parameter fit). pIC50 refers to − log IC50, and pEC50 refers to − log EC50.

T1 sequence (P32245 whole entry L106C): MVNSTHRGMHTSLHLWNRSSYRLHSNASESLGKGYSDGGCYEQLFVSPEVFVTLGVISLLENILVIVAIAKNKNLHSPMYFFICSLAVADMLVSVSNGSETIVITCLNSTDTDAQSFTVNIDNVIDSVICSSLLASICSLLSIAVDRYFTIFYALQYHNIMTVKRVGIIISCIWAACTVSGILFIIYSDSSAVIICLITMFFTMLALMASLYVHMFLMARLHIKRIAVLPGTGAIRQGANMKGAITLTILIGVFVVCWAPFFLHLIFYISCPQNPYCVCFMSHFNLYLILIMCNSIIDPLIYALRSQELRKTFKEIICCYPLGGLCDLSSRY

EC50: 6.46 nM
Compound: CCCC[C@H](NC(=O)[C@H](CO)NC(=O)[C@H](Cc1ccc(O)cc1)NC(=O)[C@H](CO)NC(=O)CCCC[C@@H]1SC[C@@H]2NC(=O)N[C@@H]21)C(=O)N[C@@H](CCC(=O)O)C(=O)N[C@@H](Cc1c[nH]cn1)C(=O)N[C@H](Cc1ccccc1)C(=O)N[C@@H](CS)C(=O)N[C@@H](Cc1c[nH]c2ccccc12)C(=O)NCC(=O)N[C@@H](CCCCN)C(=O)N1CCC[C@H]1C(=O)N[C@H](C(N)=O)C(C)C [Peptide 8]
